These results are taken from US20090318468A1, “PYRAZOLE COMPOUNDS 436” (AstraZeneca AB, priority 2008, published 2009).

In series [1] the target is T1, human cytochrome P450 (CYP) 2C19 (Homo sapiens, UniProt P33261).
T1 construct: made in house; host or cells: yeast (microsomal fraction)
Put plainly: Cytochrome P450 Inhibition Assay, CYP 2C19. The format is in vitro ADME. The settings on record: test compound 0.1-10 μM, substrate MFC; read-out: Ic50 2C19. The protocol: (§1) Cytochrome P450 Inhibition Assay
The inhibitory potential (IC50) of test compounds against 5 human cytochrome P450 (CYP) isoforms (1A2, 2C9, 2C19, 3A4 and 2D6) was assessed using an automated fluorescent end point in vitro assay modified from Crespi (Crespi and Stresser, J Pharmacol Toxicol Methods 2000, 44: 325-331). Microsomal subcellular fractions prepared from Yeast cell lines expressing each human CYP isoform were used as an enzyme source in this assay. The activity of the 5 major human CYPs was determined from the biotransformation of a number of coumarin substrates to fluorescent metabolites, in the presence of NADPH. […] Stock solutions of each CYP, with its respective substrate, were prepared in phosphate buffer pH 7.4 (see Table 1) and 178 μl was added to the well of a black solid, flat bottom, 300 μl 96 well microtitre plate (Corning Costar). […] After pre-incubating at 37° C. for 5 min the reactions were started with addition of NADPH (20 μl, concentration shown in Table 1). The final solvent content in each incubation was <=2% (1% from the test compound and a maximum of 1% from the substrate). The appropriate solvent controls and substrate blanks were included in each experiment to assess control activity and identify any inherent fluorescence due to the test compounds. In addition, known inhibitors of each CYP were included as positive controls (see Table 3 for inhibitor concentrations and expected IC50 ranges). The reactions were stopped at defined timepoints (see Table 1) by quenching with 100 μl of solvent (acetonitrile:0.5M Tris buffer 80:20 v/v). The plates were read on a fluorimeter (Spectrafluor Plus) at the appropriate excitation and emission wavelengths (listed in Table 2) and the percent activity, corrected for control, was plotted against the test compound concentration.

The target of series [2] is T2, human cytochrome P450 (CYP) 3A4 (Homo sapiens, UniProt P08684).
T2 construct: made in house; host or cells: yeast (microsomal fraction)
Put plainly: Cytochrome P450 Inhibition Assay, CYP 3A4. As to conditions: test compound 0.1-10 μM, substrate BFC. The format is in vitro ADME. As to the method: as §1
The inhibitory potential (IC50) of test compounds against 5 human cytochrome P450 (CYP) isoforms (1A2, 2C9, 2C19, 3A4 and 2D6) was assessed using an automated fluorescent end point in vitro assay modified from Crespi (Crespi and Stresser, J Pharmacol Toxicol Methods 2000, 44: 325-331). Microsomal subcellular fractions prepared from Yeast cell lines expressing each human CYP isoform were used as an enzyme source in this assay. The activity of the 5 major human CYPs was determined from the biotransformation of a number of coumarin substrates to fluorescent metabolites, in the presence of NADPH. […] Stock solutions of each CYP, with its respective substrate, were prepared in phosphate buffer pH 7.4 (see Table 1) and 178 μl was added to the well of a black solid, flat bottom, 300 μl 96 well microtitre plate (Corning Costar). […] The appropriate solvent controls and substrate blanks were included in each experiment to assess control activity and identify any inherent fluorescence due to the test compounds. […] The plates were read on a fluorimeter (Spectrafluor Plus) at the appropriate excitation and emission wavelengths (listed in Table 2) and the percent activity, corrected for control, was plotted against the test compound concentration.

Series [3] can be described thus: Clearance (pharmacokinetics) in dogs. The settings on record: dog, whole blood, dose 0.927 mg/kg (2 umol/kg); for Vd: read-out: Vss. The format is in vivo. The protocol:
For the dog dose of 0.927 mg/kg (2 umol/kg), the compounds were formulated in 10% DMSO:90% hydroxyl-propyl-β-cyclodextrin (25% w/v) in sorensens buffer pH 5 at 2 umol/ml. Each formulation was dosed (1 mL/kg) to a male and female dog (8-15 kg) which had been fasted overnight. Blood samples were taken via the jugular vein at 5, 10, 20 and 40 minutes, and 1, 2, 4, 6, 12 and 24 hours post dose. The blood samples were diluted 1:1 with water prior to anaylsis.
A set of 10 calibration standards covering the concentration range (0.001 umol/L to 10 umol/L) were prepared by spiking blank matrix (1:1 blood:water). The samples and standards were extracted using a solid phase extraction plate, blown down under nitrogen, and then reconstituted in methanol:water (20:80). The samples were analysed using LC-MSMS and the results obtained were used to determine the area under the curve from time 0 to infinity [AUC0-inf (ug.hr/ml)], clearance [Cl (ml/min/kg)] and the steady state volume distribution [Vss (L/kg)] for each compound.

Molecules are shown by their SMILES. pIC50: −log10 of the molar value. Read-outs that look alike come from different tables or passages of the source.

T2 sequence (P08684 whole entry): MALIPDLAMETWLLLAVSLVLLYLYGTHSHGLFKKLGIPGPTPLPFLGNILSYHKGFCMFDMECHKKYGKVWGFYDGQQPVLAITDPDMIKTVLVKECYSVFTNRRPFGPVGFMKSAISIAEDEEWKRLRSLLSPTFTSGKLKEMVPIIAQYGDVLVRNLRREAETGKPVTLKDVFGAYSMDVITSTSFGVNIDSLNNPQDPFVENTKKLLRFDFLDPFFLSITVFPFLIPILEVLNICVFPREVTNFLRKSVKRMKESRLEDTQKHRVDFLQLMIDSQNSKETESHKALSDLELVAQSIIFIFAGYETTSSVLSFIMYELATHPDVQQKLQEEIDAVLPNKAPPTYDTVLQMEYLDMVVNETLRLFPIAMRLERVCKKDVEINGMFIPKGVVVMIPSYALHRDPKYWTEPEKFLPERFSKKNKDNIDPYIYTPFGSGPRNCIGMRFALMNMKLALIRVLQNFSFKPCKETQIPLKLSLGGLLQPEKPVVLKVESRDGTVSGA
T1 sequence (P33261 whole entry): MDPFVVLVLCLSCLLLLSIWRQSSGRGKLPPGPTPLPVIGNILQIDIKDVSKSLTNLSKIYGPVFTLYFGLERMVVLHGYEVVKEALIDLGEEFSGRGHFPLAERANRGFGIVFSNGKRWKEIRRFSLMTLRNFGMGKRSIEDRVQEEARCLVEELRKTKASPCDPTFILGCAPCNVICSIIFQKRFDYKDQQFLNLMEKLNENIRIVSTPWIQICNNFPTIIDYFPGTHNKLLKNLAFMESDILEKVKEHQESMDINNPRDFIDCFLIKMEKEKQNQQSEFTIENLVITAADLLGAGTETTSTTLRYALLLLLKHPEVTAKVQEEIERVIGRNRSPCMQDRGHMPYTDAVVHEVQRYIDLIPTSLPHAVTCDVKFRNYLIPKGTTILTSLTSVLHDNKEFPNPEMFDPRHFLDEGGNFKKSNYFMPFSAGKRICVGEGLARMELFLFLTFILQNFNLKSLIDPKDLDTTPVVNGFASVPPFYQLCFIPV

The pIC50 is the IC50 on a negative log10 scale, so that one unit is a factor of ten. Broadly, the AUC(0-inf) is total exposure, with the tail of the curve extrapolated. A high value points to high exposure. By clearance is commonly meant the volume of plasma or blood freed of the substance per unit of time. A lower clearance goes with a low capacity for elimination. Consider `COc1cc(CCc2cc(NC(=O)c3ccc(N4CCN(C)[C@@H](C)C4)cc3)[nH]n2)cc(OC)c1` [Example 1a, (S)—N-(3-(3,5-Dimethoxyphenethyl)-1H-pyrazol-5-yl)-4-(3,4-dimethylpiperazin-1-yl)benzamide], for which, in series [1], the pIC50 is less than 5.00. In series [2], this compound showed a negative logarithm of the IC50 (pIC50) of 5.53. Further, in series [3] (female dogs), the AUC(0-inf) turned out to be 427 ng·h/mL, the clearance is 36.2 mL/min/kg and the Vd was found to be 7.08 L/kg. Further, in series [3] (male dogs), the AUC(0-inf) worked out at 585 ng·h/mL, the clearance came to 26.4 mL/min/kg and the Vd is 3.71 L/kg.
`COc1cc(CCc2cc(NC(=O)c3ccc(N4CCN(C)[C@H](C)C4)cc3)[nH]n2)cc(OC)c1` [Example 1b, (R)—N-(3-(3,5-Dimethoxyphenethyl)-1H-pyrazol-5-yl)-4-(3,4-dimethylpiperazin-1-yl)benzamide]: the negative-log IC50 (pIC50) in series [1] was 5.10. This compound showed a pIC50 in series [2] of less than 5.00. Also, in series [3] (female dogs), the total exposure AUC(0-inf) is 1350 ng·h/mL, the clearance came to 11.5 mL/min/kg and the Vd was found to be 1.71 L/kg. For the same compound, in series [3] (male dogs), the AUC(0-inf) was found to be 1240 ng·h/mL, the clearance turned out to be 12.5 mL/min/kg and the Vd came to 6.55 L/kg.
